In BindingDB's records for patent WO2025054369 (NICO Therapeutics, 2025):

These compounds were tested against T1, NAD(+) hydrolase SARM1 (Homo sapiens, UniProt Q6SZW1) (assay: Biochemical Assay of the Compounds).
T1 sequence (Q6SZW1 whole entry): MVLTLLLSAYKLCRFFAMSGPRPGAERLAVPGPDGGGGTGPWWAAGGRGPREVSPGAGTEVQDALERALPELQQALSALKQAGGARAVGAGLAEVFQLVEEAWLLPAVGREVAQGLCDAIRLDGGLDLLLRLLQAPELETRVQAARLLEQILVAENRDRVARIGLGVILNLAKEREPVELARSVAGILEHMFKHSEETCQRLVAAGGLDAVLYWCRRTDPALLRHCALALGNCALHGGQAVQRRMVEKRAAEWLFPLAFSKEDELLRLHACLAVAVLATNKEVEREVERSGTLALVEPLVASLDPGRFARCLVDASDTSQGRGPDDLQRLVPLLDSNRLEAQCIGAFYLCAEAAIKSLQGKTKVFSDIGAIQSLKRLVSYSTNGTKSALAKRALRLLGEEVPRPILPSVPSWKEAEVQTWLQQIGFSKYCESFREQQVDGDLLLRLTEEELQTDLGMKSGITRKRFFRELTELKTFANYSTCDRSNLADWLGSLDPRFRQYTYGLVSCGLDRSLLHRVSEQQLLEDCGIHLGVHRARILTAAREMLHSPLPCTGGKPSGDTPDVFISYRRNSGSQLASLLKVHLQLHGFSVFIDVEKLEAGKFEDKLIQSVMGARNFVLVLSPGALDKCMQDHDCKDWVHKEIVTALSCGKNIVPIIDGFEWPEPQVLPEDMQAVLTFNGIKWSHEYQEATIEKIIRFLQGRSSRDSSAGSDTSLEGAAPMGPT
Experimental: Preparation of full-length SARM1 (FL-SARM1) lysate: HEK293T cells (ATCC: CRL-3216) were grown on 150 mm TC-treated dishes to 80-90% confluency in complete DMEM (DMEM (Thermo Fisher: 11965175) supplemented with 10% HI-FBS (VWR: 10802-772), 1x Pen/Strep (Thermo Fisher: 15140122), 1x NEAA (Thermo Fisher: 1140050), 1x glutamax (Thermo Fisher: 35050061), and 1 mM sodium pyruvate (Thermo Fisher: 11360070)) at 37 °C and 5% CO2. One hour prior to transfection, the media was replaced with fresh, 37 °C complete DMEM (20 mL per one 150 mm dish) supplemented with additional 10mM glucose (Alfa Aesar AAJ60067EQE). Per one 150 mm dish, 30 µg FL-SARM1 (SEQ. ID.1; cloned in-house) plasmid was dissolved in 1 mL DMEM at ambient temperature and were mixed by inverting the tube 8-10 times.90 µL of GenJet™ in vitro DNA transfection reagent (Ver2) was dissolved in 1 mL DMEM at ambient temperature and were mixed by inverting the tube 8-10 times. The plasmid and transfection agent solutions were combined, mixed by 8-10 inversions and incubated for 10 minutes at ambient temperature.2 mL of this transfection mixture was added to each dish containing HEK293T cells as prepared above followed by a gentle mixing of 4-5 horizontal rotations. The dishes were incubated at 37 °C and 5% CO2 for 24 h. The dishes were removed from the incubator, the medium was aspirated and the cells were scraped off using cell scrapers in ice-cold 1x PBS (5 mL/dish, Thermo Fisher Scientific 10010023). The collected cells were centrifuged at 300 g for 5 minutes at 4 °C. The supernatant was aspirated and the pellet was frozen at -80 °C until needed. The cell pellet from 30 dishes was dissolved in 30 mL 1x PBS supplemented with 4 tablets of Complete, Mini EDTA-free protease inhibitor cocktail at 4 °C. This mixture was sonicated on ice for 10 minutes at 50% amplitude with a 1 second on/1 second off interval using a Model 120 sonicator (Thermo Fisher Scientific, FB120110). The lysate was centrifuged at 16000 g for 10 minutes at 4 °C.

Row | SMILES | IC50
1 | N#C[C@H]1CC[C@H]1c1cc(NC(=O)N2C3CC2CC(C(F)(F)F)C3)ccc1Cl (stereo partly drawn) [WO2025054369, Example 56] | 5.5 µM
2 | COC(C)(C)c1cc(NC(=O)N2C3CC(C)CC2C3)ccc1Cl (stereo not drawn) [WO2025054369, Example 79] | 5.5 µM
3 | N#C[C@H]1CC[C@H]1c1cc(NC(=O)N2C3CCC2CC(C(F)(F)F)C3)ccc1Cl (relative stereo; form 1) [WO2025054369, Example 44] | < 1 µM
4 | O=C(Nc1ccc(Cl)c(N2CC(O)C2)c1)N1C2CC1CC(C(F)(F)F)C2 (stereo not drawn) [WO2025054369, Example 89] | < 1 µM
5 | CC1CC2CC(C1)N2C(=O)Nc1ccc(Cl)c([C@H]2C[C@H](F)C2)c1 (stereo partly drawn) [WO2025054369, Example 48] | < 1 µM
6 | CC1CC2CC(C1)N2C(=O)Nc1ccc(C(F)(F)F)c(N2CC(O)C2)c1 (stereo not drawn) [WO2025054369, Example 90] | < 1 µM
7 | O=C(Nc1ccc(Cl)c([C@H]2C[C@@H](O)C2)c1)N1C2CC1CC(C(F)(F)F)C2 (stereo partly drawn) [WO2025054369, Example 43] | < 1 µM
8 | Cc1nnc([C@@]23C[C@@H](C)C[C@@H](C2)N3C(=O)Nc2ccc(Cl)c(N3CC(O)C3)c2)o1 [WO2025054369, Example 70] | < 1 µM
9 | Cc1ccc(NC(=O)N2C3CC(C)CC2C3)cc1C1CCC1C#N (stereo not drawn) [WO2025054369, Example 6] | < 1 µM
10 | C[C@@H]1C[C@@H]2C[C@H](C1)N2C(=O)Nc1ccc(Cl)c(N2CC(O)C2)c1 [WO2025054369, Example 92] | < 1 µM
11 | C[C@]1(O)CC[C@H](c2cc(NC(=O)N3C4CC3CC(C(F)(F)F)C4)ccc2Cl)C1 (stereo partly drawn) [WO2025054369, Example 64] | < 1 µM
12 | Cc1ccc(NC(=O)CC2CCC2)cc1C1CCC1 [WO2025054369, Example 11] | > 10 µM
13 | CC1CC2CC(C1)N2C(=O)Nc1ccc(Cl)c([C@H]2CC[C@H]2C#N)c1 (stereo partly drawn) [WO2025054369, Example 10] | < 1 µM
14 | Cc1nnc([C@@]23C[C@@H](C[C@@H](C(F)(F)F)C2)N3C(=O)Nc2ccc(Cl)c(C3CCC3)c2)o1 [WO2025054369, Example 68] | < 1 µM
15 | Cc1ccc(NC(=O)N2C3CCCC2C3)cc1CC1CC1 [WO2025054369, Example 13] | 5.5 µM
16 | Cc1nnc([C@@]23CCC[C@@H](C2)N3C(=O)Nc2ccc(Cl)c(C3CCC3)c2)o1 [WO2025054369, Example 59] | 5.5 µM
17 | Cc1nnc(C23CC(C)CC(C2)N3C(=O)Nc2ccc(Cl)c([C@H]3CC[C@H]3C#N)c2)o1 (stereo partly drawn) [WO2025054369, Example 4] | < 1 µM
18 | CC1CC2CC(C1)N2C(=O)Nc1ccc(Cl)c(N2CC[C@H]2C#N)c1 (stereo partly drawn) [WO2025054369, Example 72] | < 1 µM
19 | CC1CC2CC(C1)N2C(=O)Nc1ccc(Cl)c(C23CC(C2)C3)c1 (stereo not drawn) [WO2025054369, Example 20] | < 1 µM
20 | C[C@@H]1C[C@@H]2C[C@H](C1)N2C(=O)Nc1ccc(Cl)c(N2CCOC2=O)c1 [WO2025054369, Example 94] | 5.5 µM
21 | C[C@]1(O)CC[C@@H](c2cc(NC(=O)N3C4CC3CC(C(F)(F)F)C4)ccc2Cl)C1 (stereo partly drawn) [WO2025054369, Example 66] | < 1 µM
22 | CC1CC2CC(C1)N2C(=O)Nc1ccc(Cl)c(N2CC(OCCO)C2)c1 (stereo not drawn) [WO2025054369, Example 85] | 5.5 µM
23 | CC1(O)CC(c2cc(NC(=O)N3C4CC3CC(C(F)(F)F)C4)ccc2CN)C1 (stereo not drawn) [WO2025054369, Example 73] | 5.5 µM
24 | CC1CC2CC(C1)N2C(=O)Nc1ccc(Cl)c(C(C)(C)O)c1 (stereo not drawn) [WO2025054369, Example 81] | 5.5 µM
25 | CC1CC2CC(C1)N2C(=O)Nc1ccc(Cl)c(C2CC(O)C2)c1 (stereo not drawn) [WO2025054369, Example 78] | < 1 µM
26 | C[C@@H]1C[C@@H]2C[C@H](C1)N2C(=O)Nc1ccc(Cl)c(N2CCNC2=O)c1 [WO2025054369, Example 96] | < 1 µM
27 | C[C@@]1(O)CC[C@H](c2cc(NC(=O)N3C4CC3CC(C(F)(F)F)C4)ccc2Cl)C1 (stereo partly drawn) [WO2025054369, Example 67] | < 1 µM

Row | SMILES | IC50
28 | CC1CC2CC(C1)N2C(=O)Nc1ccc(Cl)c(C2(F)CCC2)c1 (stereo not drawn) [WO2025054369, Example 19] | < 1 µM
29 | Cc1nnc(C23CC(C)CC(C2)N3C(=O)Nc2ccc(Cl)c(C3CCC3)c2)o1 (stereo not drawn) [WO2025054369, Example 1] | < 1 µM
30 | CC1CC2CC(C1)N2C(=O)Nc1cc(F)c(Cl)c([C@H]2CC[C@H]2C#N)c1 (stereo partly drawn) [WO2025054369, Example 35] | < 1 µM
31 | CC1CC2CC(C1)N2C(=O)Nc1ccc(Cl)c([C@H]2CCC[C@@H]2C#N)c1 (stereo partly drawn) [WO2025054369, Example 62] | < 1 µM
32 | CC1CC2CC(C1)N2C(=O)Nc1ccc(Cl)c(C2CCC2(F)F)c1 (stereo not drawn) [WO2025054369, Example 76] | < 1 µM
33 | CC1CC2CC(C1)N2C(=O)Nc1ccc(C(F)(F)F)c(C2CCC2)c1 (stereo not drawn) [WO2025054369, Example 75] | < 1 µM
34 | CC1CC2CC(C1)N2C(=O)Nc1ccc(Cl)c(N2CCC2CF)c1 (stereo not drawn) [WO2025054369, Example 84] | < 1 µM
35 | Cc1ccc(NC(=O)N2C3CCCC2C3)cc1C1CN(CC(F)(F)F)C1 [WO2025054369, Example 26] | 5.5 µM
36 | CC1CC2CC(C1)N2C(=O)Nc1ccc(Cl)c(C2CCC2)c1 (stereo not drawn) [WO2025054369, Example 18] | < 1 µM
37 | N#C[C@H]1CC[C@H]1c1cc(NC(=O)N2C3CC2CC(C(F)(F)F)C3)ccc1C(F)(F)F (stereo partly drawn) [WO2025054369, Example 52] | 5.5 µM
38 | CC1CC2CC(C1)N2C(=O)Nc1ccc(Cl)c(N2CC(OCCN)C2)c1 (stereo not drawn) [WO2025054369, Example 86] | > 10 µM
39 | Cc1nnc(C23CC(C)CC(C2)N3C(=O)Nc2ccc(Cl)c([C@@H]3CC[C@@H]3C#N)c2)o1 (stereo partly drawn) [WO2025054369, Example 3] | < 1 µM
40 | N#C[C@@H]1CC[C@@H]1c1cc(NC(=O)N2C3CC2CC(C(F)(F)F)C3)ccc1C(F)(F)F (stereo partly drawn) [WO2025054369, Example 53] | < 1 µM
41 | N#C[C@@H]1CC[C@@H]1c1cc(NC(=O)N2C3CC2CC(C(F)(F)F)C3)ccc1Cl (stereo partly drawn) [WO2025054369, Example 33] | < 1 µM
42 | Cc1ccc(NC(=O)N2C3CCCC2C3)cc1C1CC(=O)N(C)C1 (stereo not drawn) [WO2025054369, Example 14] | 5.5 µM
43 | CC1CC2CC(C1)N2C(=O)Nc1ccc(Cl)c([C@H]2C[C@@H](O)C2)c1 (stereo partly drawn) [WO2025054369, Example 37] | < 1 µM
44 | Cc1nnc([C@]23C[C@H](C[C@H](C(F)(F)F)C2)N3C(=O)Nc2ccc(Cl)c(C3CCC3)c2)o1 [WO2025054369, Example 69] | > 10 µM
45 | C[C@@H]1C[C@@H]2C[C@H](C1)N2C(=O)Nc1ccc(Cl)c(N2CCCC2=O)c1 [WO2025054369, Example 93] | 5.5 µM
46 | CC1CC2CC(C1)N2C(=O)Nc1ccc(Cl)c([C@H]2CC[C@@H]2C(F)F)c1 (stereo partly drawn) [WO2025054369, Example 50] | < 1 µM
47 | CC1CC2CC(C1)N2C(=O)Nc1ccc(Cl)c(N2CC[C@H](O)C2)c1 (stereo partly drawn) [WO2025054369, Example 88] | < 1 µM
48 | CC1CC2CC(C1)N2C(=O)Nc1ccc(Cl)c(C2CC(C)(OCCO)C2)c1 (stereo not drawn) [WO2025054369, Example 74] | < 1 µM
49 | CC1CC2CC(C1)N2C(=O)Nc1ccc(Cl)c(C2CCC2=O)c1 (stereo not drawn) [WO2025054369, Example 83] | < 1 µM
50 | CC1CC2CC(C1)N2C(=O)Nc1ccc(Cl)c(C2CC(=O)C2)c1 (stereo not drawn) [WO2025054369, Example 77] | < 1 µM
51 | CC1CC2CC(C1)N2C(=O)Nc1ccc(Cl)c([C@H]2CC[C@H]2C(F)F)c1 (stereo partly drawn) [WO2025054369, Example 41] | 5.5 µM
52 | CC1CC2CC(C1)N2C(=O)Nc1ccc(Cl)c([C@H]2CCC[C@H]2C#N)c1 (stereo partly drawn) [WO2025054369, Example 61] | < 1 µM
53 | CC1CC2CC(C1)N2C(=O)Nc1ccc(Cl)c([C@@H]2CC[C@@H]2C(F)F)c1 (stereo partly drawn) [WO2025054369, Example 40] | < 1 µM
